Data reported in ChEMBL document CHEMBL5236606, “Synthesis, Structure-Activity Relationships, and In Vivo Evaluation of Novel C-17 Amine Derivatives Based on GSK3640254 as HIV-1 Maturation Inhibitors with Broad Spectrum Activity” (J Med Chem, 2022).
pEC50: −log10 of the molar value. ≈ marks a conversion by molar mass, not a printed value.

What was measured:
[1] = system: Human immunodeficiency virus 1; assay: Antiviral activity against wild type HIV-1 NLRepRlucP373S harboring R361K/V362I/L363M mutant infected in human MT2 cells assessed as inhibition of viral growth measured after 4 to 5 days by Dual luciferase reporter assay; assay type: functional, organism-based; settings: Human immunodeficiency virus 1, NLRepRlucP373S
[2] = Metabolic stability in human liver microsomes assessed as half life at 0.5 uM in presence of NADPH by LC-MS/MS analysis; assay type: ADME, Microsome
Albumin = Albumin (Homo sapiens, UniProt P02768); assay: Protein binding in human serum albumin assessed as fraction bound at 53 nM incubated for 1 hrs by ultracentrifugation method; assay type: ADME, cell-free; settings: read-out: PPB (converted)
[3] = Clearance in Sprague-Dawley rat at 1 mg/kg, iv by LC-MS/MS analysis; assay type: ADME, organism-based; settings: in vivo
[4] = system: Human immunodeficiency virus 1; assay: Antiviral activity against wild type HIV-1 NLRepRlucP373S harboring deltaV370 mutant infected in human MT2 cells assessed as inhibition of viral growth measured after 4 to 5 days by Dual luciferase reporter assay; assay type: functional, organism-based; settings: Human immunodeficiency virus 1, NLRepRlucP373S
[5] = MRT in Sprague-Dawley rat at 1 mg/kg, iv by LC-MS/MS analysis; assay type: ADME, organism-based; settings: in vivo
[6] = system: Human immunodeficiency virus 1; assay: Antiviral activity against wild type HIV-1 NLRepRlucP373S infected in human MT2 cells assessed as inhibition of viral growth measured after 4 to 5 days by Dual luciferase reporter assay; assay type: functional, organism-based; settings: Human immunodeficiency virus 1, NLRepRlucP373S
[7] = Fold resistance, ratio of EC50 for antiviral activity against wild type HIV-1 NLRepRlucP373S infected in human MT2 cells assessed as inhibition of viral growth in presence of 10% FBS and 40% human serum supplemented with 27mg/mL of human serum albumin to EC50 for antiviral activity against wild type HIV-1 NLRepRlucP373S infected in human MT2 cells assessed as inhibition of viral growth; assay type: functional, Human immunodeficiency virus 1
[8] = Metabolic stability in dog liver microsomes assessed as half life at 0.5 uM in presence of NADPH by LC-MS/MS analysis; assay type: ADME, Canis lupus familiaris, Microsome
[9] = system: Human immunodeficiency virus 1; assay: Antiviral activity against wild type HIV-1 NLRepRlucP373S harboring T332S/V362I/prR41G mutant infected in human MT2 cells assessed as inhibition of viral growth measured after 4 to 5 days by Dual luciferase reporter assay; assay type: functional, organism-based; settings: Human immunodeficiency virus 1, NLRepRlucP373S
[10] = Cytotoxicity against human MT2 cells assessed as reduction in cell viability; assay type: toxicity, cell-based
[11] = Metabolic stability in rat liver microsomes assessed as half life at 0.5 uM in presence of NADPH by LC-MS/MS analysis; assay type: ADME, Microsome
[12] = system: Human immunodeficiency virus 1; assay: Antiviral activity against wild type HIV-1 NLRepRlucP373S harboring A326T/V362I/V370A mutant infected in human MT2 cells assessed as inhibition of viral growth measured after 4 to 5 days by Dual luciferase reporter assay; assay type: functional, organism-based; settings: Human immunodeficiency virus 1, NLRepRlucP373S
[13] = Volume of distribution at steady state in Sprague-Dawley rat at 1 mg/kg, iv by LC-MS/MS analysis; assay type: ADME, organism-based; settings: in vivo, read-out: Vdss
[14] = Protein binding in human plasma by ultracentrifugation method; assay type: ADME, cell-free; settings: read-out: PPB
[15] = Oral bioavailability in Sprague-Dawley rat at 5 mg/kg by LC-MS/MS analysis; assay type: ADME, organism-based; settings: in vivo
[16] = system: Human immunodeficiency virus 1; assay: Antiviral activity against wild type HIV-1 NLRepRlucP373S harboring V362I/V370A mutant infected in human MT2 cells assessed as inhibition of viral growth measured after 4 to 5 days by Dual luciferase reporter assay; assay type: functional, organism-based; settings: Human immunodeficiency virus 1, NLRepRlucP373S
[17] = Half life in Sprague-Dawley rat at 1 mg/kg, iv by LC-MS/MS analysis; assay type: ADME, organism-based; settings: in vivo
[18] = system: Human immunodeficiency virus 1; assay: Antiviral activity against wild type HIV-1 NLRepRlucP373S infected in human MT2 cells assessed as inhibition of viral growth measured after 4 to 5 days in presence of 10% FBS and 40% human serum supplemented with 27 mg/mL of human serum albumin by Dual luciferase reporter assay; assay type: functional, organism-based; settings: Human immunodeficiency virus 1, NLRepRlucP373S
[19] = Solubility of the compound in FeSSIF at pH 5.0; assay type: ADME
[20] = Cmax in Sprague-Dawley rat at 5 mg/kg, po by LC-MS/MS analysis; assay type: ADME, organism-based; parameters: dose 5 mg/kg, route po; settings: in vivo
[21] = AUCt in Sprague-Dawley rat at 5 mg/kg, po by LC-MS/MS analysis; assay type: ADME, organism-based; parameters: dose 5 mg/kg, route po; settings: in vivo
[22] = Solubility of compound in FaSSIF at pH 6.5; assay type: ADME
[23] = system: Human immunodeficiency virus 1; assay: Antiviral activity against wild type HIV-1 NLRepRlucP373S harboring V370A mutant infected in human MT2 cells assessed as inhibition of viral growth measured after 4 to 5 days by Dual luciferase reporter assay; assay type: functional, organism-based; settings: Human immunodeficiency virus 1, NLRepRlucP373S

Chain of Albumin (P02768 whole entry): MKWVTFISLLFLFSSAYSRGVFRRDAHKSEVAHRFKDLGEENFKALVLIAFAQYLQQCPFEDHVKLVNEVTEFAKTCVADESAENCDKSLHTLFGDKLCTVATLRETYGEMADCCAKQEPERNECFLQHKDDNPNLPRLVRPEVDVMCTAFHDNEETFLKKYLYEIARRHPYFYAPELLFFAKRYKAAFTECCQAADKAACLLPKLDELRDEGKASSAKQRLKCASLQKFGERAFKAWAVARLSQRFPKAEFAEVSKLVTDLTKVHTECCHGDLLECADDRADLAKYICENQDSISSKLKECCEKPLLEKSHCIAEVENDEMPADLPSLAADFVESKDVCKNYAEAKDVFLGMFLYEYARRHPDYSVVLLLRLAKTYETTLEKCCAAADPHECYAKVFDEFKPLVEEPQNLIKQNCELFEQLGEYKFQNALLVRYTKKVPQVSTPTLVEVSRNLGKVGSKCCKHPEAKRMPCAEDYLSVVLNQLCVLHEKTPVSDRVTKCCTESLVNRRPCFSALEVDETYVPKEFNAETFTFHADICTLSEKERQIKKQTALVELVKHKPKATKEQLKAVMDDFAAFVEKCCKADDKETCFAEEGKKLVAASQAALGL

Row | SMILES | pEC50 [6] | fold change (FC) [7] | pEC50 [9] | CC50 [10] | pEC50 [18] | other results
1 | C=C(C)[C@@H]1CC[C@]2(NCCN3CCS(=O)(=O)CC3)CC[C@]3(C)[C@H](CC[C@@H]4[C@@]5(C)CC=C(C6=CC[C@@](CF)(C(=O)O)CC6)C(C)(C)[C@@H]5CC[C@]43C)[C@@H]12 | 8.52 | 4.6 | 8.15 | 15600 nM |  | pEC50 [1]: 8.52; half-life at 0.5 µM [2]: 1.83 h; fraction unbound at 1 h, 0.053 µM (Albumin): 0.14; clearance [3]: 6.5 mL/min/kg; pEC50 [4]: 8.52; MRT [5]: 4.9 h; half-life at 0.5 µM [8]: 1.47 h; half-life at 0.5 µM [11]: 1.45 h; pEC50 [12]: 7.59; Vd [13]: 1.8 L/kg
2 | C=C(C)[C@@H]1CC[C@]2(C(=O)O)CC[C@]3(C)[C@H](CC[C@@H]4[C@@]5(C)CC[C@H](OC(=O)CC(C)(C)C(=O)O)C(C)(C)[C@@H]5CC[C@]43C)[C@@H]12 [BEVIRIMAT] |  | 97 |  |  |  | fraction unbound [14]: < 0.001
3 | C=C(C)[C@@H]1CC[C@]2(NCC[C@]3(O)CC[C@](C)(O)CC3)CC[C@]3(C)[C@H](CC[C@@H]4[C@@]5(C)CC=C(C6=CC[C@](CF)(C(=O)O)CC6)C(C)(C)[C@@H]5CC[C@]43C)[C@@H]12 | 8.68 | 6.3 | 8.09 | 16000 nM | 7.89 | pEC50 [1]: 8.29; bioavailability [15]: 20%; half-life at 0.5 µM [2]: > 2 h; fraction unbound at 1 h, 0.053 µM (Albumin): 0.11; pEC50 [16]: 8.42; half-life [17]: 3.9 h; clearance [3]: 3.7 mL/min/kg; solubility [19]: > 480 µM; pEC50 [4]: 8.22; MRT [5]: 3.6 h; Cmax [20]: 720 nM; AUC(0-t) [21]: 6.19 µM·h; solubility [22]: < 1 µM; half-life at 0.5 µM [8]: > 2 h; half-life at 0.5 µM [11]: > 2 h; pEC50 [12]: 8.10; Vd [13]: 0.8 L/kg
4 | C=C(C)[C@@H]1CC[C@]2(NCCC3(O)CCN(C(C)=O)CC3)CC[C@]3(C)[C@H](CC[C@@H]4[C@@]5(C)CC=C(C6=CC[C@](CF)(C(=O)O)CC6)C(C)(C)[C@@H]5CC[C@]43C)[C@@H]12 | 8.77 | 14 | 8.17 | 14000 nM | 7.62 | 
5 | C=C(C)[C@@H]1CC[C@]2(C(=O)NCCOC)CC[C@]3(C)[C@H](CC[C@@H]4[C@@]5(C)CC=C(c6ccc(C(=O)O)cc6)C(C)(C)[C@@H]5CC[C@]43C)[C@@H]12 |  |  |  |  |  | pEC50 [23]: 6.82
6 | C=C(C)[C@@H]1CC[C@]2(NCCC3(O)COC3)CC[C@]3(C)[C@H](CC[C@@H]4[C@@]5(C)CC=C(C6=CC[C@](CF)(C(=O)O)CC6)C(C)(C)[C@@H]5CC[C@]43C)[C@@H]12 | 8.77 | 10 | 8.15 | 18000 nM | 7.77 | pEC50 [1]: 8.21; bioavailability [15]: 140%; half-life at 0.5 µM [2]: > 2 h; fraction unbound at 1 h, 0.053 µM (Albumin): 0.12; pEC50 [16]: 8.39; half-life [17]: 3.6 h; clearance [3]: 6.5 mL/min/kg; solubility [19]: 32 µM (≈ 21.3 µg/mL); pEC50 [4]: 8.28; MRT [5]: 2.7 h; Cmax [20]: 3860 nM; AUC(0-t) [21]: 27.3 µM·h; solubility [22]: 4 µM (≈ 2.66 µg/mL); half-life at 0.5 µM [8]: > 2 h; half-life at 0.5 µM [11]: 1.33 h; pEC50 [12]: 8.18; Vd [13]: 1 L/kg
7 | C=C(C)[C@@H]1CC[C@]2(NCC[C@]3(O)CC[C@@](C)(O)CC3)CC[C@]3(C)[C@H](CC[C@@H]4[C@@]5(C)CC=C(C6=CC[C@](CF)(C(=O)O)CC6)C(C)(C)[C@@H]5CC[C@]43C)[C@@H]12 | 8.77 | 9.8 | 8.21 | 18000 nM | 7.80 | 
8 | C=C(C)[C@@H]1CC[C@]2(NCCC3(O)CCS(=O)(=O)CC3)CC[C@]3(C)[C@H](CC[C@@H]4[C@@]5(C)CC=C(C6=CC[C@](CF)(C(=O)O)CC6)C(C)(C)[C@@H]5CC[C@]43C)[C@@H]12 | 8.64 | 83 | 8.11 | 14000 nM | 7.72 | 
9 | C=C(C)[C@@H]1CC[C@]2(NCCN3CCS(=O)(=O)CC3)CC[C@]3(C)[C@H](CC[C@@H]4[C@@]5(C)CC=C(c6ccc(C(=O)O)cc6)C(C)(C)[C@@H]5CC[C@]43C)[C@@H]12 [BMS-955176] |  | 2 | 6.15 | 13000 nM |  | pEC50 [16]: 8.52; pEC50 [4]: 8.22
10 | C=C(C)[C@@H]1CC[C@]2(NCCC(C)(C)O)CC[C@]3(C)[C@H](CC[C@@H]4[C@@]5(C)CC=C(C6=CC[C@](CF)(C(=O)O)CC6)C(C)(C)[C@@H]5CC[C@]43C)[C@@H]12 | 8.72 | 14 | 8.08 | 8300 nM | 7.59 | 
11 | C=C(C)[C@@H]1CC[C@]2(NCCC3(O)COC3)CC[C@]3(C)[C@H](CC[C@@H]4[C@@]5(C)CC=C(C6=CC[C@@](CF)(C(=O)O)CC6)C(C)(C)[C@@H]5CC[C@]43C)[C@@H]12 | 8.72 | 14 | 7.92 | 13000 nM | 7.57 | 
12 | C=C(C)[C@@H]1CC[C@]2(NCCN3CCS(=O)(=O)CC3)CC[C@]3(C)[C@H](CC[C@@H]4[C@@]5(C)CC=C(C6=CC[C@@](CF)(C(=O)O)CC6)C(C)(C)[C@@H]5CC[C@]43C)[C@@H]12.Cl.Cl |  |  |  |  |  | solubility [19]: 800 µM; solubility [22]: 310 µM
13 | C=C(C)[C@@H]1CC[C@]2(NCCC(C)C)CC[C@]3(C)[C@H](CC[C@@H]4[C@@]5(C)CC=C(C6=CC[C@](CF)(C(=O)O)CC6)C(C)(C)[C@@H]5CC[C@]43C)[C@@H]12 | 6.92 | 15 | 6.03 | 16000 nM | 5.75 | 
14 | C=C(C)[C@@H]1CC[C@]2(NCC[C@]3(O)CC[C@](C)(O)CC3)CC[C@]3(C)[C@H](CC[C@@H]4[C@@]5(C)CC=C(C6=CC[C@@](CF)(C(=O)O)CC6)C(C)(C)[C@@H]5CC[C@]43C)[C@@H]12 | 8.52 | 4.6 | 8.04 | 11000 nM | 7.85 | 
15 | C=C(C)[C@@H]1CC[C@]2(C(=O)NCCO)CC[C@]3(C)[C@H](CC[C@@H]4[C@@]5(C)CC=C(c6ccc(C(=O)O)cc6)C(C)(C)[C@@H]5CC[C@]43C)[C@@H]12 |  |  |  |  |  | pEC50 [23]: 7.39; pEC50 [4]: < 5.70
16 | C=C(C)[C@@H]1CC[C@]2(NCCC3(O)CCOCC3)CC[C@]3(C)[C@H](CC[C@@H]4[C@@]5(C)CC=C(C6=CC[C@](CF)(C(=O)O)CC6)C(C)(C)[C@@H]5CC[C@]43C)[C@@H]12 | 8.70 | 15 | 8.09 | 9500 nM | 7.52 | 
17 | C=C(C)[C@@H]1CC[C@]2(NCCN3CCC(C)(O)CC3)CC[C@]3(C)[C@H](CC[C@@H]4[C@@]5(C)CC=C(C6=CC[C@](CF)(C(=O)O)CC6)C(C)(C)[C@@H]5CC[C@]43C)[C@@H]12 | 8.92 | 16 | 8.25 | 14000 nM | 7.72 | 
